Measured values taken from patent US20240174629A1 (OTCPHARM JSC, priority 2021, published 2024).
Converted amounts (≈) assume the structure as drawn. Where a name gives a salt, the structure may show the parent alone.

Tests used:
[1] = Cytotoxicity, microtetrazolium test (MTT); settings: dog, MDCK cells, CC50 (MDCK), mean ±SD
[2] = Acute oral toxicity, fixed dose method (OECD 420); settings: for GHS hazard class: acute oral toxicity in mice, UN GHS classification; for Died / Survived: female BALB/c mice, intragastric, 2000 mg/kg
SARS-CoV-2 coronavirus = test: Activity against SARS-CoV-2 coronavirus on U2-OS ACE2 cells (S-Fuse, GFP signal); type: cell-based; settings: Severe acute respiratory syndrome coronavirus 2, U2OS; SARS-CoV-2, U2-OS ACE2 cells, MOI 0.1, 20 hours
U2-OS ACE2 cells = test: Cytotoxicity on U2-OS ACE2 cells (Hoechst signal); settings: 20 hours

| Structure (SMILES) | CC50 at 48 h [1] [µg/mL] | melting point [°C] | also measured |
| --- | --- | --- | --- |
| COC(=O)c1c(N(Cc2ccccc2F)C(C)=O)sc2c(Cl)c(O)ccc12 [Example 23, Methyl 2-[acetyl(2-fluorobenzyl)amino]-7-chloro-6-hydroxy-1-benzothiophene-3-carboxylate] | > 300 |  | GHS hazard class [2]: 5; Died [2]: 0; Survived [2]: 4 |
| COC(=O)c1c(N(Cc2ccc(F)cc2)C(C)=O)sc2c(CN(C)C)c(O)ccc12 [Example 62, Methyl 2-[acetyl(4-fluorobenzyl)amino-7-[(dimethylamino)methyl]-6-hydroxy-1-benzothiophene-3-carboxylate hydrochloride] | 92 ± 7 |  | IC50 (SARS-CoV-2 coronavirus): 11.3 µM; Cytotoxicity (U2-OS ACE2 cells): Non-toxic up to 2500 μM |
| COC(=O)c1c(N(Cc2ccccc2)C(C)=O)sc2c(CN3CCN(C)CC3)c(O)ccc12 [Example 65, Methyl 2-[acetyl(benzyl)amino-6-hydroxy-7-[(4-methylpiperazin-1-yl)methyl]-1-benzothiophene-3-carboxylate hydrochloride] | 18.7 ± 1.6 |  | IC50 (SARS-CoV-2 coronavirus): 9.8 µM; Cytotoxicity (U2-OS ACE2 cells): Non-toxic up to 2500 μM |
| COC(=O)c1c(N(Cc2ccccc2)C(C)=O)sc2c(CN(C)C)c(O)ccc12 [Example 50, Methyl 2-[acelyl (benzyl)amino-7-[(dimethylamino)methyl]-6-hydroxy-1-benzothiophene-3-carboxylate] | 182 (≈ 441 µM) |  | IC50 (SARS-CoV-2 coronavirus): 9.08 µM; Cytotoxicity (U2-OS ACE2 cells): Non-toxic up to 2500 μM |
| CNC(=O)c1c(N(Cc2ccccc2)C(C)=O)sc2c(Cl)c(O)ccc12 [Example 72, 2-[acetyl(benzyl)amino]-7-chloro-6-hydroxy-N-methyl-1-benzothiophene-3-carboxamide] | 160 ± 11 (≈ 411 µM) |  | GHS hazard class [2]: 5; Died [2]: 0; Survived [2]: 4 |
| CCN(CC)Cc1c(O)ccc2c(C(=O)OC)c(N(Cc3ccccc3)C(C)=O)sc12 [Example 64, hydrochloride] | 148 ± 11 |  | IC50 (SARS-CoV-2 coronavirus): 9.12 µM; Cytotoxicity (U2-OS ACE2 cells): Non-toxic up to 2500 μM |
| CCOC(=O)c1c(CSc2ccccc2)n(C)c2cc(Br)c(O)c(CN(C)C)c12 [Umifenovir, reference compound] | 16 (≈ 33.5 µM) |  | IC50 (SARS-CoV-2 coronavirus): 76 µM; Cytotoxicity (U2-OS ACE2 cells): Non-toxic up to 2500 μM |
| CCCNC(=O)c1c(N(Cc2ccccc2)C(C)=O)sc2cc(O)ccc12 [Example 80, 2-[acetyl(benzyl)amino]-6-hydroxy-N-propyl-1-benzothiophene-3-carboxamide] | 240 ± 16 (≈ 627 µM) | 85 to 90 |  |
| COC(=O)c1c(N(Cc2ccc(C(C)C)cc2)C(C)=O)sc2c(Cl)c(O)ccc12 [Example 41, Methyl 2-[acetyl(4-isopropylbenzyl)amino]-7-chloro-6-hydroxy-1-benzothiophene-3-carboxylate] | 5 ± 0.5 (≈ 11.6 µM) | 183 to 186 |  |
| CNC(=O)c1c(N(Cc2ccccc2F)C(C)=O)sc2c(Cl)c(O)ccc12 [Example 75, 2-[acetyl(2-fluorobenzyl)amino]-7-chloro-6-hydroxy-N-methyl-1-benzothiophene-3-carboxamide] | 28 ± 4 (≈ 68.8 µM) | 108 to 112 |  |
| COC(=O)c1c(N(Cc2ccc3ccccc3c2)C(C)=O)sc2c(Cl)c(O)ccc12 [Example 33, Methyl 2-[acetyl(2-naphthylmethyl)amino]-7-chloro-6-hydroxy-1-benzothiophene-3-carboxylate] | 3.7 ± 0.4 (≈ 8.41 µM) | 185 to 190 |  |
| COC(=O)c1c(N(Cc2ccccc2Cl)C(C)=O)sc2c(CN(C)C)c(O)ccc12 [Example 51] | > 300 | 132 to 136 |  |
| COC(=O)c1c(N(Cc2ccccc2F)C(C)=O)sc2c(CN(C)C)c(O)ccc12 [Example 52] | 180 ± 16 (≈ 418 µM) |  | GHS hazard class [2]: 5; Died [2]: 0; Survived [2]: 4 |
| CCOC(=O)c1c(N(Cc2ccccc2)C(C)=O)sc2cc(O)ccc12 [Example 2, Ethyl 2-[acetyl(benzyl)amino]-6-hydroxy-1-benzothiophene-3-carboxylate] | 11.7 ± 0.6 (≈ 31.7 µM) | 146 to 148 |  |
| COC(=O)c1c(N(Cc2ccc(F)cc2F)C(C)=O)sc2c(Cl)c(O)ccc12 [Example 29, Methyl 2-[acetyl(2,4-difluorobenzyl)amino]-7-chloro-6-hydroxy-1-benzothiophene-3-carboxylate] | > 300 | 205 to 210 |  |
| COC(=O)c1c(N(Cc2cccc3ccccc23)C(C)=O)sc2cc(O)ccc12 [Example 32, Methyl 2-[acetyl(1-naphthylmethyl)amino]-6-hydroxy-1-benzothiophene-3-carboxylate] | > 300 | 198 to 202 |  |
| CNC(=O)c1c(N(Cc2ccccc2F)C(C)=O)sc2cc(O)ccc12 [Example 76, 2-[acetyl(2-fluorobenzyl)amino]-6-hydroxy-N-methyl-1-benzothiophene-3-carboxamide] | > 300 | 105 to 112 |  |
| CC(=O)N(Cc1ccccc1Cl)c1sc2c(Cl)c(O)ccc2c1C(=O)O [Example 68, 2-[acetyl(2-chlorobenzyl)amino]-7-chloro-6-hydroxy-1-benzothiophene-3-carboxylic acid] | 65 ± 4 (≈ 158 µM) | 265 to 270 |  |
| COC(=O)c1c(N(CCc2ccccc2)C(C)=O)sc2cc(O)ccc12 [Example 36, Methyl 2-[acetyl(2-phenylethyl)amino]-6-hydroxy-1-benzothiophene-3-carboxylate] | > 300 | 190 to 194 |  |
| COC(=O)c1c(N(C(C)=O)C(C)c2ccccc2)sc2cc(O)ccc12 (stereo not shown) [Example 38, Methyl 2-[acetyl(1-phenylethyl)amino]-6-hydroxy-1-benzothiophene-3-carboxylate] | 30 (≈ 81.2 µM) | 152 to 157 |  |
| CC(=O)N(Cc1ccccc1)c1sc2c(Cl)c(O)ccc2c1C(=O)N1CCCCC1 [Example 82, N-benzyl-N-[7-chloro-6-hydroxy-3-(piperidin-1-ylcarbonyl)-1-benzothien-2-yl]acetamide] | 16.3 ± 0.8 (≈ 36.8 µM) | 95 to 100 |  |
| COC(=O)c1c(N(Cc2ccccc2Cl)C(C)=O)sc2cc(O)ccc12 [Example 16, Methyl 2-[acetyl(2-chlorobenzyl)amino]-6-hydroxy-1-benzothiophene-3-carboxylate] | 21 (≈ 53.9 µM) | 220 to 224 |  |
| COC(=O)c1c(N(CCc2ccccc2F)C(C)=O)sc2c(CN(C)C)c(O)ccc12 [Example 56, Methyl 2-{acetyl[2-(2-fluorophenyl)ethyl]amino}-7-[(dimethylamino)methyl]-6-hydroxy-1-benzothiophene-3-carboxylate] | > 300 | 114 to 120 |  |
| CC(=O)N(Cc1ccccc1)c1sc2cc(O)ccc2c1C(N)=O [Example 81, 2-[acetyl(benzyl)amino]-6-hydroxy-1-benzothiophene-3-carboxamide] | 251 ± 19 (≈ 737 µM) | 110 to 115 |  |
| CNC(=O)c1c(N(Cc2ccccc2F)C(C)=O)sc2c(CN(C)C)c(O)ccc12 [Example 84, 2-[acetyl(2-fluorobenzyl)amino]-7-[(dimethylamino)methyl]-6-hydroxy-N-methyl-1-benzothiophene-3-carboxamide] | > 300 | 122 to 126 |  |
